The record followed here is ChEMBL document CHEMBL4364346, “Structure optimization of a new class of PPARγ antagonists” (Bioorg Med Chem, 2019).

In brackets after ≈: the same amount, converted by molar mass.

Test system in one data set: not listed separately
Kind of data set: Solubility of compound in PBS buffer pH 7.4 with 1% DMSO measured after 1 and 24 hrs. The format is physicochemical. As to conditions: PBS buffer with 1% DMSO; call rule not given here.
The term solubility denotes how much of the substance goes into solution per volume. Read a high solubility as much dissolved substance. The compound `CCCC/C(=C\c1cc(OCc2ccc3nc(C(F)(F)F)cc(OC)c3c2)ccc1OCc1ccc(C(F)(F)F)cc1)C(=O)O` showed a solubility at 24 h of 50 to 75 µM (≈ 31.7 to 47.5 µg/mL).

A further data set addresses T1, Peroxisome proliferator-activated receptor gamma (Homo sapiens, UniProt P37231).
T1 sequence (P37231 whole entry): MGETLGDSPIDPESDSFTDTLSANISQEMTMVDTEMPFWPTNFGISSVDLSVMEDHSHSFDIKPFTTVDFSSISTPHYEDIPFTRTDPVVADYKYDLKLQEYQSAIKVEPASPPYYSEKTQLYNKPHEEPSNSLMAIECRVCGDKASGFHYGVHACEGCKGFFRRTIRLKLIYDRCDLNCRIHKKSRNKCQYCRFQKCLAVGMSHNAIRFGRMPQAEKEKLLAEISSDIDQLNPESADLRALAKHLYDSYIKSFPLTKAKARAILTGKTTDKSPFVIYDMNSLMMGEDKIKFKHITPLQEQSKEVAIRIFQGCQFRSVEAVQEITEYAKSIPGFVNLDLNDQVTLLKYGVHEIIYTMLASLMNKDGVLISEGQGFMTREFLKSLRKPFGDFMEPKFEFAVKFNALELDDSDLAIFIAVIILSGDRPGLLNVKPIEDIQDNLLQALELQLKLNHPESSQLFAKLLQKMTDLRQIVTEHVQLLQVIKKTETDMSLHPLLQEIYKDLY
The data set can be described thus: Antagonist actvity in pFA-GAL4-DBD fused PPARgamma LBD (unknown origin) transfected in HEK293T cells assessed as inhibition of rosiglitazone-induced PPARgamma transactivation incubated for 24 hrs by luciferase reporter gene assay.
Conditions: not given
The format is cell-based. For orientation: In a reporter assay the amount or activity of a reporter protein is the signal.
Broadly, the IC50 is the concentration that inhibits the measured activity by half. For the compound `CCC/C(=C\c1cc(OC)ccc1OCc1ccc2nc(C(F)(F)F)cc(OC)c2c1)C(=O)O`, the IC50 entry is “Not Active”.

On to `CCCC/C(=C\c1cc(OCc2cn(Cc3ccc(C(=O)O)cc3)nn2)ccc1OCc1ccc(C(F)(F)F)cc1)C(=O)O`, for which the IC50 entry was “Not Active”.

For the compound `CCCCC(Cc1cc(OCc2ccc3nc(C(F)(F)F)cc(OC)c3c2)ccc1OCc1ccc(C(F)(F)F)cc1)C(=O)O` (configuration not stated), the IC50 result was “Not Active”.

In the case of `COc1cc(C(F)(F)F)nc2ccc(COc3ccc(OCc4ccc(F)cc4)c(/C=C(\F)C(=O)O)c3)cc12`, the half-inhibitory concentration (IC50) entry is “Not Active”.

As for `CCC/C(=C\c1cc(OCc2ccc(N(C)C)cc2)ccc1OCc1ccc(F)cc1)C(=O)O`, the IC50 result is given as “Not Active”.

Consider `CCC/C(=C\c1cc(OCc2ccc3[nH]ccc3c2)ccc1OCc1ccc(F)cc1)C(=O)O`, for which the IC50 result is “Not Active”.

`CCC/C(=C\c1cc(OCc2ccc3nc(C(F)(F)F)cc(OC)c3c2)ccc1OCC1CCNCC1)C(=O)O`: the IC50 result is “Not Active”.

Staying with this data set, now noted: read-out: IC50.
For the compound `CCCC/C(=C\c1cc(OCc2ccc3nc(C(F)(F)F)cc(OC)c3c2)ccc1OCc1ccc(OC(F)F)cc1)C(=O)O`, the half-maximal inhibitory concentration (IC50) stood at 2.6 µM.

As for `COc1cc(C(F)(F)F)nc2ccc(COc3ccc(OCc4ccc(F)cc4)c(/C=C(\C)C(=O)O)c3)cc12`, the IC50 is 9.4 µM.

Turning to `COc1cc(C(F)(F)F)nc2ccc(COc3ccc(OCC4CCN(C)CC4)c(/C=C(\CCC4CC4)C(=O)O)c3)cc12`, the concentration for half-maximal inhibition (IC50) is 7.5 µM.

As for `CCCn1c(C(=O)O)cc2c(OC)ccc(OCc3ccc4nc(C(F)(F)F)cc(OC)c4c3)c21`, the IC50 was determined as 3.9 µM.

Consider `CCC/C(=C\c1cc(OCc2ccc3nc(C(F)(F)F)cc(OC)c3c2)ccc1OCc1ccc(F)cc1)C(=O)O`, for which the half-maximal inhibitory concentration (IC50) worked out at 3.2 µM.

In the case of `CCC/C(=C\c1cc(OCc2ccc3nc(C(F)(F)F)cc(OC)c3c2)ccc1OCc1cccc(F)c1)C(=O)O`, the half-inhibitory concentration (IC50) was 3.9 µM.

For `CC/C(=C\c1cc(OCc2ccc3nc(C(F)(F)F)cc(OC)c3c2)ccc1OCc1ccc(F)cc1)C(=O)O`, the IC50 was 5.7 µM.

Consider `CCC/C(=C\c1cc(OCc2ccc3nc(C(F)(F)F)cc(OC)c3c2)ccc1OCCN1CCNCC1)C(=O)O`, for which the IC50 is 9.6 µM.

For the compound `CCC/C(=C\c1cc(OCc2ccc3[nH]c(=O)ccc3c2)ccc1OCc1ccc(F)cc1)C(=O)O`, the IC50 worked out at 6.1 µM.

In the case of `CCC/C(=C\c1cc(OCc2ccc3nc(C(F)(F)F)cc(OC)c3c2)ccc1NC(=O)c1ccc(F)cc1)C(=O)O`, the half-inhibitory concentration (IC50) came out at 9.5 µM.

As for `CCC/C(=C\c1cc(OCc2ccc3ccccc3n2)ccc1OCc1ccc(F)cc1)C(=O)O`, the IC50 worked out at 13.1 µM.

Consider `CCC/C(=C\c1cc(OCc2ccc3nc(C(F)(F)F)cc(OC)c3c2)ccc1OCc1ccccc1F)C(=O)O`, for which the concentration for half-maximal inhibition (IC50) came out at 3.5 µM.

As for `CCC/C(=C\c1cc(OCc2ccc3ccccc3c2)ccc1OCc1ccc(F)cc1)C(=O)O`, the IC50 is 15.8 µM.

Take `CCC/C(=C\c1cc(OCc2ccc3cccnc3c2)ccc1OCc1ccc(F)cc1)C(=O)O`: the IC50 is 23.9 µM.

Turning to `COc1cc(C(F)(F)F)nc2ccc(COc3ccc(OCc4ccc(F)cc4)c(/C=C(\CC4CC4)C(=O)O)c3)cc12`, the IC50 was found to be 8.4 µM.

Consider `CCC/C(=C\c1cc(OCc2ccc3nc(C(F)(F)F)cc(OC)c3c2)ccc1OCc1ccncc1)C(=O)O`, for which the IC50 turned out to be 4.7 µM.

In the case of `CCC/C(=C\c1cc(OCc2ccc3ncccc3c2)ccc1OCC1CCN(C)CC1)C(=O)O`, the 50% inhibitory concentration (IC50) was found to be 15.1 µM.

As for `CCC/C(=C\c1cc(OCc2ccc3c(ccc[n+]3[O-])c2)ccc1OCc1ccc(F)cc1)C(=O)O`, the IC50 stood at 6.1 µM.

In the case of `CCC/C(=C\c1cc(OCc2ccc3nc(C)ccc3c2)ccc1OCc1ccc(F)cc1)C(=O)O`, the half-inhibitory concentration (IC50) came to 4.2 µM.

As to `CCC/C(=C\c1cc(OCc2ccc3ncccc3c2)ccc1OCc1ccc(F)cc1)C(=O)O`, the IC50 came to 5 µM.

As to `CCC/C(=C\c1cc(OCc2ccc3nc(C(F)(F)F)cc(OC)c3c2)ccc1OCc1ccccc1)C(=O)O`, the IC50 turned out to be 7.2 µM.

On to `CCCC/C(=C\c1cc(OCc2ccc3nc(C(F)(F)F)cc(OC)c3c2)ccc1OCc1ccc(F)cc1)C(=O)O`, for which the IC50 turned out to be 2.3 µM.

In the case of `COc1cc(C(F)(F)F)nc2ccc(COc3ccc(OCc4ccc(F)cc4)c(/C=C/C(=O)O)c3)cc12`, the concentration for half-maximal inhibition (IC50) stood at 11 µM.

Turning to `CCCC/C(=C\c1cc(OCc2ccc3nc(C(F)(F)F)cc(OC)c3c2)ccc1OCc1ccc(OC(F)(F)F)cc1)C(=O)O`, the IC50 was determined as 1.9 µM.
